The experiment deals with T1, PARK7 (Homo sapiens, UniProt Q99497).
T1 sequence (Q99497 1-189): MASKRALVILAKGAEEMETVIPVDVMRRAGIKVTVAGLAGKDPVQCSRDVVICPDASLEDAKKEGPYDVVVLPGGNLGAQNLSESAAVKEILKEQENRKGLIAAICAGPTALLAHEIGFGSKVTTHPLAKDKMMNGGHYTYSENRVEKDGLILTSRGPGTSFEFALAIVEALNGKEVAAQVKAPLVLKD
Kind of experiment: High-throughput screen of the crude compound library, PARK7 fluorescence polarization (FP) assay with FP reagent JYQ-107. The experiment is classed as biochemical. The settings on record: read-out: HTS FP assay %Inhibition (1.25 µM). From the text: Therefore, taking JYQ-88 as a starting point, we conducted an optimization to further improve the molecule in terms of inhibitory potency, specificity, and cellular uptake. […] First, a small tailored library was designed and synthesized to investigate whether the introduction of larger, hydrophilic substituents on JYQ-88 would enhance the interaction with the PARK7 pocket. […] The second approach involved the generation of a compound library containing diverse substituents at the azidomethyl position. […] We next performed a high-throughput screen of this crude compound library using our in-house developed PARK7 fluorescence polarization (FP) assay.[15]

Where [1] appears, read: 1.25 µM, crude compound library.

The structures appear in SMILES notation. Like-named read-outs stand apart in the source and are kept apart here.

As a reminder, the inhibition is the drop in the measured response relative to a control, in per cent. In the case of `N#CN1CC[C@@H](C(=O)Nc2nc3c(s2)CNCC3)C1` [amine], the inhibition at 1.25 µM is 39.9%.
Consider `N#CN1CC[C@@H](C(=O)Nc2nc3c(s2)CN(C(=O)c2nc(N4CCCC4)ncc2Cl)CC3)C1` [compound 6], for which the inhibition at 1.25 µM under setting [1] is 71.7%.
On the same count and under the same terms, next, `N#CN1CC[C@@H](C(=O)Nc2nc3c(s2)CN(C(=O)C(Cc2c[nH]cn2)NS(=O)(=O)c2ccc(Cl)cc2)CC3)C1` (stereo partly drawn) [compound 7]: 67.3%; `N#CN1CC[C@@H](C(=O)Nc2nc3c(s2)CN(C(=O)Cc2csc(-c4cnccn4)n2)CC3)C1` [compound 8]: 71.4%.
Still for that read-out and setting: the same measure for `N#CN1CC[C@@H](C(=O)Nc2nc3c(s2)CN(C(=O)CCN(Cc2ccccc2)S(=O)(=O)c2c(Cl)cccc2Cl)CC3)C1` [compound 9]: 69.7%; for `N#CN1CC[C@@H](C(=O)Nc2nc3c(s2)CN(C(=O)c2ncoc2-c2cccs2)CC3)C1` [compound 10]: 77.3%; for `Cc1ccc(-n2c(C)ccc2C)c(C(=O)N2CCc3nc(NC(=O)[C@@H]4CCN(C#N)C4)sc3C2)c1` [compound 12]: 66.6%.
On the same count and under the same terms, next, `N#CN1CC[C@@H](C(=O)Nc2nc3c(s2)CN(C(=O)Cc2csc(COc4ccc(Cl)cc4)n2)CC3)C1` [compound 13]: 75.4%.
With `N#CN1CC[C@@H](C(=O)Nc2nc3c(s2)CN(C(=O)Cc2cc(-c4ccccc4)on2)CC3)C1` [compound 14], the inhibition at 1.25 µM under setting [1] was 73%.
In the case of `N#CN1CC[C@@H](C(=O)Nc2nc3c(s2)CN(C(=O)Cc2ccc(S(=O)(=O)N4CCCC4)s2)CC3)C1` [compound 15], the inhibition at 1.25 µM under setting [1] was determined as 69.5%.
As to `CN(C(=O)c1cccs1)c1ccccc1C(=O)N1CCc2nc(NC(=O)[C@@H]3CCN(C#N)C3)sc2C1` [compound 16], the inhibition at 1.25 µM under setting [1] stood at 63%.
On the same count and under the same terms, the same measure for `CN1CCN(c2ccccc2C(=O)N2CCc3nc(NC(=O)[C@@H]4CCN(C#N)C4)sc3C2)CC1` [compound 17]: 51.2%; for `Cn1cc(-c2ocnc2C(=O)N2CCc3nc(NC(=O)[C@@H]4CCN(C#N)C4)sc3C2)cn1` [compound 18]: 60.9%.
As for `N#CN1CC[C@@H](C(=O)Nc2nc3c(s2)CN(C(=O)c2cc(S(N)(=O)=O)ccc2-c2cccc(C(F)(F)F)c2)CC3)C1` [compound 19], under setting [1], the inhibition at 1.25 µM amounted to 69%.
`N#CN1CC[C@@H](C(=O)Nc2nc3c(s2)CN(C(=O)c2cnoc2-c2cccs2)CC3)C1` [compound 20]: the inhibition at 1.25 µM under setting [1] amounted to 73%.
Still for that read-out and setting: the same measure for `N#CN1CC[C@@H](C(=O)Nc2nc3c(s2)CN(C(=O)c2ccc(OCc4ccncc4)cc2)CC3)C1` [compound 21]: 59.5%.
With `N#CN1CC[C@@H](C(=O)Nc2nc3c(s2)CN(C(=O)C2CCN(Cc4ccc(Cl)s4)CC2)CC3)C1` [compound 23], the inhibition at 1.25 µM under setting [1] turned out to be 68.4%.
Consider `N#CN1CC[C@@H](C(=O)Nc2nc3c(s2)CN(C(=O)C2CC(=O)N(c4cnccn4)C2)CC3)C1` (stereo partly drawn) [compound 24], for which, under setting [1], the inhibition at 1.25 µM came to 71.4%.
With `CCC(C(=O)N1CCc2nc(NC(=O)[C@@H]3CCN(C#N)C3)sc2C1)n1nnc(-c2ccsc2)n1` (stereo partly drawn) [compound 25], the inhibition at 1.25 µM under setting [1] amounted to 65.2%.
With `Cc1cnn(-c2c(C(=O)N3CCc4nc(NC(=O)[C@@H]5CCN(C#N)C5)sc4C3)c(C)nn2C)c1` [compound 26], under setting [1], the inhibition at 1.25 µM came to 61.4%.
On to `N#CN1CC[C@@H](C(=O)Nc2nc3c(s2)CN(C(=O)c2csc(-c4ncccn4)n2)CC3)C1` [compound 27], for which the inhibition at 1.25 µM under setting [1] came to 80.8%.
On the same count and under the same terms, next, `N#CN1CC[C@@H](C(=O)Nc2nc3c(s2)CN(C(=O)c2ncoc2C2CC2)CC3)C1` [compound 28]: 85.7%; `N#CN1CC[C@@H](C(=O)Nc2nc3c(s2)CN(C(=O)CC(O)(c2nccn2Cc2ccccc2)C(F)(F)F)CC3)C1` (stereo partly drawn) [compound 29]: 78.4%; `Cc1ccc(NS(=O)(=O)c2cccc(C(=O)N3CCc4nc(NC(=O)[C@@H]5CCN(C#N)C5)sc4C3)c2)cc1` [compound 31]: 83.8%.

The values above are taken from article PMC11129182, “Development of Inhibitors, Probes, and PROTAC Provides a Complete Toolbox to Study PARK7 in the Living Cell” (Journal of Medicinal Chemistry, 2024).
